Assay results reported in US5279956A, “Activated protein C polypeptides and anti-peptide antibodies, diagnostic methods and systems for inhibiting activated protein C” (The Scripps Research Institute, priority 1991, dated 1994).
No end group written: not given here.

Target: T1, APC (Homo sapiens, UniProt P04070)
T1 construct: begins at amino acid residue position 158 and ends at 419; The light chain is 155 amino acid residues in length; tissue Factor IX concentrate from Immuno AG, Vienna; thrombin from Enzyme Research Laboratories
T1 sequence (P04070 212-461): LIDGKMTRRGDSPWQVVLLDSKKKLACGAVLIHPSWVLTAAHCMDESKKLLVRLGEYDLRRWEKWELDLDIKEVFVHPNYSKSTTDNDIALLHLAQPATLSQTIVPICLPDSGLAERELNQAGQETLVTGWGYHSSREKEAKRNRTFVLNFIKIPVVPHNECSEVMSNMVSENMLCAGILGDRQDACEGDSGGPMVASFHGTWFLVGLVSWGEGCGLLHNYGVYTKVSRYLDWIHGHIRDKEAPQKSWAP
T1 sequence (P04070 43-197): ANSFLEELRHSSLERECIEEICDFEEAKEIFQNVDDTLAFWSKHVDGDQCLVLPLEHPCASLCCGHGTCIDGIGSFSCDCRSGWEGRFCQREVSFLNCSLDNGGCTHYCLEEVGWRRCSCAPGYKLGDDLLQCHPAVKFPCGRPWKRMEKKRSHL
Experiment: APC anticoagulant activity, APTT and Xa-1-stage coagulation assays (mean or both)
Assay type: biochemical
Settings: 500 μM peptide; mean of APTT and Xa-1-stage assays; 0 = no observable effect ± 10%
Procedure: (§1) The effect of the synthetic peptides on APC anticoagulant activity were determined using the APTT assay in the presence of either normal citrate anticoagulated plasma (NHP) or protein S depleted plasma (PSDP). The assays were performed essentially as described. See Marlar et al., Blood, 59:1067-1072 […]; Suzuki et al., J. Biol. Chem., 258:163-168 (1983); Gruber et al., Blood, 73:639-642 (1989); Ohlin et al., Biochem., 29:644-651 (1990). NHP was purchased from George King Bio-Medical, Inc. (Overland Park, Kans.). PSDP was prepared from a normal human citrate-anticoagulated plasma pool from ten healthy donors. Protein S was immunodepleted from the NHP by immunoaffinity chromatography of NHP over an anti-protein S antibody column to form PSDP. The anti-protein S antibody column was prepared by coupling 100 mg of a monoclonal, high-affinity, calcium-independent anti-PS antibody, designated S7, to 30 ml of CNBr-activated Sepharose 4B (Pharmacia) as described in Example 2c1).
For the APTT assay, APC was prepared as described in Example 2c2). […] The concentration of the APC used in the assay was initially optimized with respect to the sensitivity of the assay towards APC-induced prolongation of clotting time compared to clotting time without APC.
(§2) Once the optimal concentration of APC was determined, peptides from Table 2 were then separately admixed for a final concentration of 500 μM with 10 nM APC in 100 μl of TBS-BSA at pH 7.4 to form peptide-APC admixtures. The resulting admixtures were maintained for seven minutes at 37° C. Separate aliquots of peptides maintained under the same conditions in the absence of APC served as controls for the inhibitory effect of synthetic peptides on APC anticoagulant activity. After the maintenance period, 100 μl of NHP and 100 μl APTT-reagent Thrombosil (Ortho Diagnostics, Raritan, N.J.) were admixed into each peptide admixture and maintained for 200 seconds at 37° C. to form a pre-coagulation admixture. In some experiments, PSDP was used in the place of NHP to determine the effect of Protein S on the assay system. Coagulation was then initiated by the admixture of 100 μl of 30 mM CaCl2 in TBS prewarmed to 37° C. to each of the pre-coagulation admixtures. The time for clot formation was measured by an Electra 700 Automatic Coagulation Timer (Medical Laboratory Automation, Inc., Mount Vernon, N.Y.). Each peptide's effect was determined in duplicate.
The synthetic peptides listed in Table 4 are presented in the same order as listed in Table 2, i.e., are reproduced from Table 2. […] For peptides at a concentration of 500 μM that inhibited at least 50% of APC anticoagulant activity, analysis of dose-response was subsequently conducted. The column in Table 4 labeled "Inhibition of APC" represents the inhibition of APC anticoagulant activity measured with 500 μM peptide.
For testing the inhibition of the synthetic peptides on APC activity described above, Xa-1-stage coagulation assays were also performed as described. See Seegers et al., Thrombosis Res., 13:233-243 (1978); Marlar et al., supra; and Walker et al., J. Biol. Chem. 265:1484-1489 (1990).

| Substance | inhibition at 500 µM | Inhibition of APC (%) |
| --- | --- | --- |
| HSSREKEAKRNRTFV-NH2 [peptide-(303-317), HSSREKEAKRNRTFV] | 0% | – |
| VLTAAHCMDESKKL-NH2 [peptide-(206-219), VLTAAHCMDESKKL] | 0% | – |
| TRRGDSPWQVVLLDS-NH2 [(176-190), TRRGDSPWQVVLLDS] | 25% | – |
| PATLSQTIVPISLPD-NH2 [peptide-(266-280) SEQ ID NO 7, PATLSQTIVPI -SLPD] | 0% | – |
| SKKLLVRLGEYDLRR-NH2 [peptide-(216-230), SKKLLVRLGEYDLRR] | 0% | – |
| DTEDQEDQVDPRLID-NH2 [peptide-(158-172), DTEDQEDQVDPRLID] | 0% | – |
| HPSWVLTAAHSMDES-NH2 [peptide-(202-216), HPSWVLTAAH -SMDES] | 0% | – |
| PATLSQTIVPICLP-NH2 [peptide-(266-279), PATLSQTIVPICLP] | 0% | – |
| SKSTTDNDIALLHLA [peptide-(250-263)] | – | 0% |
| DIKEVFVHPNYSKST-NH2 [(239-253), DIKEVFVHPNYSKST] | 20% | – |
| VSRYLDWIHGHIRDK-NH2 [peptide-(396-410), VSRYLDWIHGHIRDK] | 95% | – |
| GTWFLVLVSWGEGC [peptide-(370-384)] | – | 0% |
| ELDLDIKEVFVHPNY-NH2 [peptide-(235-249), ELDLDIKEVFVHPNY] | 0% | – |
| LDSKKKLASGAVLIH-NH2 [peptide-(188-202), LDSKKKLA -SGAVLIH] | 0% | – |
| VLNFIKIPVVPHNEC-NH2 [peptide-(317-331), VLNFIKIPVVPHNEC] | 50% | – |
| RRWEKWELDLDIKEV-NH2 [peptide-(229-243), RRWEKWELDLDIKEV] | 0% | – |

| Substance | inhibition at 500 µM | Inhibition of APC (%) |
| --- | --- | --- |
| HIWDLYRSVKTYVGY-NH2 [peptide-(404-390), HIWDLYRSVKTYVGY] | 0% | – |
| PATLSQTIVPIGLPD-NH2 [peptide-(266-280) SEQ ID NO 8, PATLSQTIVPI -- GLPD] | 0% | – |
| GHIRDKEAPQKSWAP-NH2 [peptide-(405-419), GHIRDKEAPQKSWAP] | 0% | – |
| DESKKLLVRLGEYDL [peptide-(214-230)] | – | 0% |
| LPDSGLAERELNQAG-NH2 [peptide-(278-292), LPDSGLAERELNQAG] | 0% | – |
| AGILGDRQDA-NH2 [peptide-(346-355), AGILGDRQDA] | 0% | – |
| GEYDLRRWEKWELDL-NH2 [peptide-(224-238), GEYDLRRWEKWELDL] | 0% | – |
| IVPISLPDSGLAERE-NH2 [peptide-(273-287), IVPI -SLPDSGLAERE] | 0% | – |
| MSNMVSENMLCAGI-NH2 [peptide-(335-348), MSNMVSENMLCAGI] | 0% | – |
| LIDGKMTRRGDSPWQ-NH2 [peptide-(170-184), LIDGKMTRRGDSPWQ] | 0% | – |
| QDACEGDSGGPMVA-NH2 [peptide-(353-366), QDACEGDSGGPMVA] | 0% | – |
| EVMSNMVSENMLSAG-NH2 [peptide-(333-347), EVMSNMVSENML -SAG] | 0% | – |
| LLHLAQPATLSQTIV-NH2 [peptide-(260-274), LLHLAQPATLSQTIV] | 0% | – |
| QETLVTGWGYHSSRE-NH2 [peptide-(293-307), QETLVTGWGYHSSRE] | 0% | – |
| DRQDASEGDSGGPMV-NH2 [peptide-(351-365), DRQDA -SEGDSGGPMV] | 0% | – |

Same assay, conditions: final peptide concentration at which 50% inhibition of APC activity was observed

| Substance | IC50 |
| --- | --- |
| VSRYLDWIHGHIRDK-NH2 [peptide-(396-410), VSRYLDWIHGHIRDK] | 70 µM |
| VLNFIKIPVVPHNEC-NH2 [peptide-(317-331), VLNFIKIPVVPHNEC] | 500 µM |

Same assay, conditions: final peptide concentration at which 90% inhibition of APC activity was observed; read-out: IC90

| Substance | IC90 |
| --- | --- |
| VSRYLDWIHGHIRDK-NH2 [peptide-(396-410), VSRYLDWIHGHIRDK] | 300 µM |

Target: T1, APC
Experiment: Activated partial thromboplastin time (APTT) coagulation assay of APC anticoagulant activity
Assay type: biochemical
Settings: APTT assay in the presence of APC
Procedure: as §1, with “2c1). Residual total protein S content in the resultant PSDP was less than 0.1% protein S as determined by quantitative immunoblotting, by solid-phase ELISA for total protein S and by electroimmunoassay.” for “2c1).”
For the APTT assay, APC was prepared as described in Example 2c2). The specific anticoagulant activity of APC was determined to be 250 Units/mg. The concentration of the APC used in the assay was initially optimized with respect to the sensitivity of the assay towards APC-induced prolongation of clotting time compared to clotting time without APC.
as §2
Additional assays were performed to compare the specificity of the inhibitory effect of peptide-(390-404) on APC anticoagulant activity. Both APTT and Xa-1-stage assays were performed with peptide-(390-404) and with the same peptide synthesized in the reverse order, peptide-(404-390), at concentrations of the peptides ranging from 0 μM to 40 μM. In APTT assays performed as described above in the presence of NHP, APC was used at a concentration of 2.5 nM. For APTT assays in the presence of PSDP, APC was used at a concentration of 5 nM. […]
Once the optimal concentration of APC was determined, anti-(390-404) was separately admixed ranging in concentration from 0.0 to 240 nM with APC in 200 μl of TBS-BSA and 30 mM CaCl2 at pH 7.4 to form an anti-(390-404)-APC immunoreaction admixture pre-maintenance solution. […]

| Substance | IC50 | IC90 |
| --- | --- | --- |
| VSRYLDWIHGHIRDK-NH2 [peptide-(396-410), VSRYLDWIHGHIRDK] | 70 µM | 300 µM |
| VLNFIKIPVVPHNEC-NH2 [peptide-(317-331), VLNFIKIPVVPHNEC] | 500 µM | – |
